Laboratory results taken from patent publication US20180250313A1, “COMPOUNDS AND FORMULATIONS FOR TREATING OPHTHALMIC DISEASES” (VIEWPOINT THERAPEUTICS, INC., priority 2015, published 2018).

Columns and labels:
[1] = Ocular distribution of Compound IIIC after intravitreal administration (LC-MS/MS of ocular tissues); type: in vivo, New Zealand White rabbits; details: for Levels in the lens: intravitreal
Description: New Zealand White rabbits obtained from the Western Oregon Rabbit Company were used for this study. 12 animals were used in this study, and all animals used were male. Prior to treatment initiation, selection of animals for the study was based on a visual appraisal of good clinical condition and body weight specifications. Animals selected for use in this study were as uniform in age and weight as possible. Animal's weights ranged from about 2.58 to about 3.22 kilograms at the start of the experiment. All animals were healthy at the time of animal selection. All animals were identified by ear tag and by cage cards listing the animal identification number, study number, group, and sex of the animal.
The compound of formula IIIC was tested at two different concentrations, 3% weight/volume and 0.5% weight/volume. For both concentrations the compound was formulated as an aqueous suspension. Details of the formulations are as follows: Formulation 1: 3% of ˜500 nm nanoparticles of a compound of formula IIIC in 0.6% tromethamine as buffer, 0.1% polysorbate-80 to aide in dispersion of the API, pH adjusted with boric acid to 7.4, and osmolarity adjusted with mannitol to 293 mOsm. Formulation 2: 0.5% of ˜500 nm nanoparticles of a compound of formula IIIC in 0.6% tromethamine as buffer, 0.1% polysorbate-80 to aide in dispersion of the API, pH adjusted with boric acid to 7.4, and osmolarity adjusted with mannitol to 293 mOsm.
Animals were assigned to one of two experimental groups based on body weight, such that each group contained 6 animals. Animals in group 1 were administered 25 μL for formulation 1 by intravitreous injection, while animals in group 2 were administered 25 μL of formulation 2. Within each group animals were further divided into 3 time points, 2 hours, 1 day and 7 days. Each time point consisted of two animals. Administration of formulations 1 and 2 occurred at time 0.
For intravitreal injections animals were anesthetized with an intramuscular injection of ketamine hydrochloride (12 to 20 mg/kg) and xylazine (5 mg/kg). One to two drops of topical proparacaine hydrochloride anesthetic (0.5%) were applied to the animal's eyes prior to the surgical procedure. The eyes were cleaned with Betadine and then rinsed with balanced salt solution (BSS). Test article was drawn up directly into a 0.3 mL insulin syringe with a 31G 5/16 inch needle, and injections were made 4 to 5 mm away from the limbus. Once the needle was inserted, 25 μL of the test article was injected. The needle was removed and the eye rinsed with BSS. […] Animals were monitored during recovery.
Animals were euthanized at the designated time points by an intravenous injection of pentobarbital (150 mg/kg). […] The concentration of compound IIIC in each collected sample was measured by LC-MS/MS. […]

[2] = Kinetics of compound accumulation in the lens of entire human globes soaked one to four days; type: in vitro ADME; details: human globes in 1 mM API in 8% cyclodextrin in PBS, room temperature
Procedure: In a similar experiment, entire human globes were used to determine the kinetics of compound accumulation in the lens. A total of eight globes were soaked in a solution of 1 mM API in 8% cyclodextrin in PBS for one, two, three, or four days at room temperature.

[3] = Ex vivo human tissue pharmacokinetic experiment: entire human globes soaked six days, C29 exposure in areas of the eye; type: in vitro ADME; details: for Calculated Concentration: globe soaked in 1 mM API in 8% cyclodextrin in PBS, six days, room temperature; for Dilution Corrected Concentration: six days soak, 1 mM API in 8% cyclodextrin in PBS
Procedure: Pharmacokinetic experiments were performed on entire human globes (eye without appendages) to determine exposure of the compound (C29) in various areas of the eye. Each globe was obtained less than 24 hours after collection and then soaked in either a solution of 1 mM API in 8% cyclodextrin in PBS or only PBS for six days at room temperature.

levels in the vitreous humor, course over time ([1]; intravitreal 25 μL, 3% and 0.5% formulation, 2 hr, 24 hr, 168 hr): decreased steadily at later time points
levels in the vitreous humor, dependence on dose ([1]; intravitreal 25 μL, 3% versus 0.5% formulation, 2 hr, 24 hr, 168 hr): dose-dependent
Levels in the lens ([1]; earlier time points): undetectable
Average Concentration in Lens ([2]; 1 day of incubation): 14.5 µM
Average Concentration in Lens ([2]; 2 days of incubation): 20.7 µM
Average Concentration in Lens ([2]; 3 days of incubation): 39.8 µM
Average Concentration in Lens ([2]; 4 days of incubation): 37.8 µM
Calculated Concentration ([3]; Human Cornea): 2120 nM
Dilution Corrected Concentration ([3]; Human Cornea): 4.24 µM
Calculated Concentration ([3]; Human Iris): 1330 nM
Dilution Corrected Concentration ([3]; Human Iris): 2.66 µM
Calculated Concentration ([3]; Human Lens): 7620 nM
Dilution Corrected Concentration ([3]; Human Lens): 15.24 µM
Calculated Concentration ([3]; Human Retina): 4310 nM
Dilution Corrected Concentration ([3]; Human Retina): 8.62 µM
Calculated Concentration ([3]; Human Vitreous Humor): 2410 nM
Dilution Corrected Concentration ([3]; Human Vitreous Humor): 4.82 µM
Structure (SMILES): C[C@H](CCCC(C)(C)O)[C@H]1CC[C@H]2[C@@H]3CC=C4C[C@@H](O)CC[C@]4(C)[C@H]3CC[C@]12C [Compound C29, 25-hydroxycholesterol]
Levels in the lens ([1]; higher-dosed group, last time point (7 days after dosing)): consistently exhibiting detectable levels
